# What was measured:
# melanoma xenografts = settings: oral 10-30 mg/kg daily for 3 wk or 10 mg/kg injected in the tumor; cited from earlier work
# D9 cells, vector control = assay: Annexin V / cell number in D9 vector control cells; assay type: cell-based; settings: 3 μM (CDDO: 5 hrs)
# Procedure: (§1) Annexin V staining. Cells were washed in phosphate-buffered saline (PBS) and resuspended in 100 μl of binding buffer containing Annexin V (Roche Diagnostic Corporation, Indianapolis, Ind.). Cells were analyzed by flow cytometry after the addition of propidium iodide (PI). Annexin V binds to those cells that express phosphatidylserine on the outer layer of the cell membrane, and PI stains the cellular DNA of those cells with a compromised cell membrane. This allows for live cells (unstained with either fluorochrome) to be discriminated from apoptotic cells (stained only with annexin V) and necrotic cells (stained with both annexin and PI).
# (§2) To characterize the correlation between PPARγ and caspase activation, caspase-3 levels in D9 cells transfected with wt-PPARγ were analyzed. Six different single cell-derived clones were treated with 3 μM CDDO or vehicle controls for 5 hrs. Caspase-3 cleavage was analyzed by Western blot. A decrease in pro-caspase-3 with appearance of the cleaved product was readily observed in all clones. The degree of cleavage was higher in PPARγ-transfected than in vector control cells that express endogenous PPARγ. […] These changes correlated with plasma membrane changes: vector control=47.0% annexin V-positive cells; wt-PPARγ-transfected cells=73.3±1.1% annexin V (+), n=6. […] PPARγ-transfected cells were also more sensitive to PPARγ-ligand 15d-PGJ2 (41.00% vs 16.0% annexin (+) cells at 3 μM).
# To characterize the correlation between PPARγ and caspase activation, caspase-3 levels in D9 cells transfected with wt-PPARγ were analyzed. Six different single cell-derived clones were treated with 3 μM CDDO or vehicle controls for 5 hrs. Caspase-3 cleavage was analyzed by Western blot. A decrease in pro-caspase-3 with appearance of the cleaved product was readily observed in all clones. The degree of cleavage was higher in PPARγ-transfected than in vector control cells that express endogenous PPARγ. […] These changes correlated with plasma membrane changes: vector control=47.0% annexin V-positive cells; wt-PPARγ-transfected cells=73.3±1.1% annexin V (+), n=6. […]
# HL-60 cells [1] = settings: 15d-PGJ2 at 3 μM, BRL49653 at 5 μM (Tontonoz et al., 1998); cited from earlier work
# primary AML samples = assay: Annexin V staining of primary AML samples exposed to PPARγ ligands; assay type: cell-based, human; settings: 72 hrs; 15d-PGJ2 5 μM; BRL49653, L-805645, GW347845X 25 μM
# Procedure: as §1
# HL-60 cells [2] = assay: Differentiation by CD11b/CD14 flow cytometry; assay type: cell-based, human; settings: 7 days
# HL-60 cells [3] = assay: Viable cell count of leukemic cells in suspension culture (Trypan blue); assay type: cell-based, human; settings: read-out: concentration required for 50% inhibition of HL-60 cells; PPARγ ligands compared to CDDO
# Procedure: Suspension culture of leukemic cells. Leukemic cell lines were cultured at a density of 3.0×10^5 cells/mL, and AML mononuclear cells at 5×10^5 cells/mL in the presence or absence of indicated concentrations of CDDO-Me. Appropriate amounts of DMSO (final concentration<0.05%) was included as a control. For cytotoxicity studies, 1 μM ara-C was added to the cultures.
# CDDO. […] The percentage of proliferating cells were analyzed by FCM.
# CDDO-Me. […] Mechanism of growth inhibition was analyzed on cell cycle and apoptosis in HL-60 cells.
# [4] = test system: wt-PPARγ-transfected D9 cells; assay: Annexin V / cell number in wt-PPARγ-transfected D9 cells; assay type: cell-based; settings: 3 μM (CDDO: 5 hrs, n=6)
# Procedure: as §1, §2
# as §2, with “(41.0%” for “(41.00%”
# The sensitivity of leukemic cells that overexpress PPARγ to CDDO-induced killing was tested. Vector control (pcDNA) or wt-PPARγ-transfected D9 cells (2 different clones) were treated 0.2 μM of CDDO for 48 hrs. Cell viability was assessed by cell count after Trypan blue exclusion, and apoptosis determined by PS/annexin V/Propidium Iodide (PI) flow cytometry. Leukemic cells transfected with PPARγ expressed 2.8-3.7-fold higher amounts of protein compared with vector controls. […] Importantly, CDDO increased PPARγ expression in both, vector control and transfected cells. […]
# HL-60 cells [5] = settings: 15d-PGJ2 at 3 μM, BRL49653 at 5 μM (Tontonoz et al., 1998); cited from earlier work; remark: listed apart in the source
# leukemic cell lines = assay: Proliferation of leukemic cell lines (cell count and 3H incorporation); assay type: cell-based; settings: read-out: IC50, proliferation of leukemic cells
# HL-60 cells [6] = assay: Differentiation by CD11b/CD14 flow cytometry; assay type: cell-based, human; settings: 7 days, concentration 1 (column head M)
# Procedure: Immunophenotyping. The PE-conjugated anti-CD11b, FITC-conjugated anti-CD14 monoclonal antibody (mAb) (Becton Dickinson) and PE-conjugated anti-CD95 mAb (PharMingen) were used at a 1/10 dilution.
# Enhancement in cellular differentiation using combinations of CDDO with ATRA were tested. […] Cell differentiation was analyzed by flow cytometry (CD14/CD11b staining). […] These experiments were repeated. […]
# Finally, the inventors examined if CDDO-Me combined with ATRA would enhance differentiation. […] […] Next, combined treatment with CDDO-Me and RXR-specific ligand were tested for potentiation of anti-leukemic effects.
Compound,growth of melanoma xenografts in vivo (melanoma xenografts),"annexin V-positive cells (D9 cells, vector control) [%]",killing of HL-60 cells (HL-60 cells [1]),annexin-V-positive cells (primary AML samples) [%],CD11b % (HL-60 cells [2]; 10 μM (15d-PGJ2 column head prints M)) [%],CD11b % (HL-60 cells [2]; concentration 3 (column head M)) [%],CD11b % (HL-60 cells [2]; concentration 5 (column head M)) [%],IC50 (HL-60 cells [3]) [µM],annexin V (+) cells [4] [%],monocytic differentiation of HL-60 cells (HL-60 cells [5]),IC50 (leukemic cell lines) [µM],CD11b % (HL-60 cells [6]) [%]
O=C(O)c1ccc2cc(-c3ccc(O)c(C45CC6CC(CC(C6)C4)C5)c3)ccc2c1 [CD437],caused growth inhibition of melanoma xenografts,,,,,,,,,,,
"CCCCC/C=C/C=C1/C(=O)C=C[C@@H]1C/C=C\CCCC(=O)O [15d-PGJ2, 15-deoxyΔ^12,14PGJ2]",,16.0,no killing,27.7,88.9,49.4,83.9,5,41.0,induce monocytic differentiation,5 to 10,34.1
